Here are results for 3 compounds from patent US20260241041A1, “FLUORESCENCE IMAGING REAGENT FOR LIPID DROPLETS IN TISSUES AND CELLS” (NATIONAL UNIVERSITY CORPORATION GUNMA UNIVERSITY, priority 2021, published 2026).

For data set [1] the following is noted: green fluorescence; cited from earlier work.
Data set [2] can be described thus: Measurement of maximum absorption wavelength, maximum fluorescence wavelength and fluorescence quantum yield in solvents. The data set is classed as physicochemical. As to the method: Using a luminescent quantum yield measurement apparatus ([…]-01, manufactured by Hamamatsu Photonics K. K.), the maximum absorption wavelength (λabs/nm), the maximum fluorescence wavelength (λflu/nm), and the fluorescence quantum yield (Φf) of the compound in each solvent were measured. […] The fluorescence quantum yield was not less than 0.9 in any of the solvents.

Data set [3] in a line: Measurement of fluorescence lifetime in solvents. The data set is classed as physicochemical. Here is the method:
The fluorescence lifetime (τf) of the compound in each solvent was measured using a compact fluorescence lifetime measurement apparatus (Quntaurus-Tau, manufactured by Hamamatsu Photonics K. K.).
The compounds of the present invention synthesized in the above Synthesis Examples (FIG. 4; DBC30, DBC30-Bu, and DBC30-Ph) contain an 8-dibutylaminocoumarine skeleton. […] The maximum absorption wavelength was found at 401 to 412 nm, and the maximum fluorescence wavelength was found at 467 to 484 nm, which corresponds to blue fluorescence. […] The fluorescence quantum yield was not less than 0.9 in any of the solvents.

Data set [4] relates to lipid droplets in HeLa cells. Nature of the data set: Fluorescence imaging of lipid droplets in cultured cells (luminescence intensity vs Lipi-Blue). The data set is classed as cell-based. The settings on record: 400 μM oleic acid 48 h, reagent 500 nM, 60 min, excitation 430 nm, compared with Lipi-Blue. Here is the method: (§1) Fluorescence intensity imaging and fluorescence lifetime imaging were carried out using a confocal laser microscope (IX-73; manufactured by Olympus Corporation) equipped with a confocal scanner (DCS-120; Becker & Hickl).
Imaging of lipid droplets in cultured cells was studied by a comparative experiment on the performance between DBC30, DBC30-Bu, and DBC30-Ph, and a commercially available blue imaging reagent (Lipi-Blue). The investigated items were the luminescence intensity and the photostability.
Each fluorescent reagent was added to a final concentration of 500 nM to HeLa cells cultured for 48 hours in the presence of 400 μM oleic acid. Culture was then performed for 60 minutes, and the cultured cells were irradiated with an excitation light (DBC30, DBC30-Bu, DBC30-Ph, Lipi-Blue: 430 nm) required for the imaging, followed by observation using a confocal laser microscope.

For data set [5], the system named is lipid droplets in HeLa cells. Nature of the data set: Photostability in cells under repeated confocal scanning. The format is cell-based. The following applies: 400 μM oleic acid, 100 nM, 500 times of scanning, excitation 430 nm. Here is the method:
Photostability is an important factor in long-term measurement for, for example, tracing the processes of formation, fusion, and degradation of lipid droplets. Each fluorescent reagent was added to a final concentration of 100 nM (DBC30, C6-OBu, or BODIPY493/503) or 2 μM (Lipi-Blue) to HeLa cells cultured for 48 hours in the presence of 400 μM oleic acid. Culture was then performed for 30 minutes, and the cultured cells were irradiated with an excitation light (DBC30, DBC30-Bu, Lipi-Blue: 430 nm; BODIPY 493/503: 488 nm) required for the imaging, followed by acquisition of imaging images using a confocal laser microscope. The photostability was evaluated by 500 times of scanning in which a set of 50 times of scanning was repeated.

Data set [6] has as its system lipid droplets in HeLa cells. Nature of the data set: Co-staining with BODIPY 493/503 for lipid droplet selectivity. The settings on record: 400 μM oleic acid, 100 nM, 30 min, excitation 430 nm, observation 460-500 nm. The format is cell-based. Here is the method:
In order to clarify the lipid droplet selectivities of DBC30, DBC30-Bu, and DBC30-Ph, co-staining experiments were carried out with BODIPY 493/503, which is a commercially available green fluorescent lipid droplet reagent (FIGS. 8 to 10). Each fluorescent reagent was added to a final concentration of 100 nM to HeLa cells cultured for 48 hours in the presence of 400 μM oleic acid. Culture was then performed for 30 minutes, and the cultured cells were irradiated with an excitation light required for the imaging, followed by observation. For DBC30, DBC30-Bu and DBC30-Ph, the excitation wavelength was 430 nm, and the observation wavelength was 460-500 nm. For BODIPY 493/503, the excitation wavelength was 488 nm, and the observation wavelength was 510 to 560 nm.

For the next data set, the system named is lipid droplets. Nature of the data set: Multicolor imaging with Mito Tracker Green and Lyso Tracker Red. The data set is classed as cell-based. The following applies: co-staining with Mito Tracker Green and Lyso Tracker Red. The text has this:
Mito Tracker Green (excitation wavelength, 488 nm; observation wavelength, 510 to 560 nm), which is a green fluorescent reagent showing accumulation in mitochondria, and Lyso Tracker Red (excitation wavelength, 570 nm; observation wavelength, >590 nm), which is a red fluorescent reagent showing accumulation in lysosomes, were used.

Data set [7] in a line: Solubility / precipitation in physiological saline. The format is physicochemical. As to the method:
(§2) Fluorescence imaging of lipid droplets in a tissue, and of an adipose tissue, using DBC30, DBC30-Bu, or DBC30-Ph is described below. Since the DBC30 series has remarkably low solubility in water (physiological saline), they cannot be easily directly dissolved. […] Therefore, they cannot be administered to mice. In view of this, the 5 mM stock solution was added (at a volume ratio of 10%) to physiological saline supplemented with 10% bovine serum albumin. […] Regarding administration of MNs-NB, a stock solution in DMSO is directly administered to mice. Since administration of DMSO may cause death of mice from shock, the administration method in the present invention is thought to be a safer method. Here, 100 to 200 μL of 500 μM solution (50 to 100 nmol) was administered to the tail vein of mice under anesthesia, and a fluorescence imaging experiment was carried out. In the present experiment, a microscope capable of acquiring fluorescence lifetime images as well as fluorescence intensity images (FLIM: fluorescence lifetime imaging microscope) was used.

The test system of data set [8] is lipid droplets in the liver. Nature of the data set: Fluorescence intensity and lifetime imaging of liver lipid droplets in normal and fatty-liver model mice. The data set is classed as in vivo, mice (BALB/cAJcl). The following applies: 50 nmol, tail vein. As to the method:
as §1
as §2, with “used. […]” for “used.”

Data set [9] relates to adipose tissues and lipid droplets. Nature of the data set: Fluorescence imaging of adipose tissues, skeletal muscle and kidney of a mouse. The data set is classed as in vivo, mouse (BALB/cAJcl). The following applies: 50 nmol. As to the method: as §1, §2
In an individual, various adipose tissues and lipid droplets are present. Their imaging was carried out using DBC30. […]

The mark [10] stands for this setting: 5 mM DMSO stock added at 10% to physiological saline supplemented with 10% bovine serum albumin.
The mark [11] stands for this setting: 5 mM DMSO stock added at volume ratio of 10% to physiological saline.

In the case of `CC1=CC(C)=[N+]2C1=C(C)c1c(C)cc(C)n1[B-]2(F)F` [BODIPY 493/503], the fluorescence wavelength entry in data set [1] was “about 500 nm”.

Turning to `CCCCN(CCCC)c1ccc2cc(-c3nc4ccccc4n3C)c(=O)oc2c1` [DBC30], the figures for the λabs max in data set [2] (in Bu2O (dibutyl ether)) and in data set [2] (in MeCN (acetonitrile)) were 404 nm and 410 nm, respectively. The λflu max amounted to 468 nm in data set [2] (in Bu2O (dibutyl ether)) and 484 nm in data set [2] (in MeCN (acetonitrile)). In addition, the “φl (fluorescence quantum yield)” value in [2] (in Bu2O (dibutyl ether)) amounted to 0.93; in data set [2] (in MeCN (acetonitrile)), 0.90. For the same compound, the “τf (fluorescence lifetime)” value in data set [3] (in Bu2O (dibutyl ether)) came out at 2.29 ns; in data set [3] (in MeCN (acetonitrile)) it was 2.55 ns. For the same compound, the “fluorescence intensity in cells” value in data set [4] was “higher fluorescence intensities than the HeLa cells to which Lipi-Blue was added”. Besides, the photostability in cells result in [5] is reported as “higher photostability compared to the conventional reagents such as Lipi-Blue”. Further, the “lipid droplet selectivity (co-staining with BODIPY 493/503)” value in [6] is “found to have lipid droplet selectivity”. For the same compound, in the data set on lipid droplets, the “use in multicolor imaging” value is listed as “can be used for multicolor imaging”. For the same compound, the precipitation entry is “could be suppressed” in data set [7] (setting [10]) and “precipitation of DBC30, DBC30-Bu, or DBC30-Ph occurs” in data set [7] (setting [11]). For the same compound, the figures for the “imaging of lipid droplets in liver” value in data set [8] (fatty-liver model mouse (Week 2)) and in [8] (mouse fed with a normal diet) were “large lipid droplets were imaged over the entire liver surface” and “small lipid droplets could be found in hepatocytes”, respectively. In [9], the “imaging of lipid droplets in kidney” value is “small lipid droplets distributed in tubular cells could be imaged”. Also, the “imaging of subcutaneous adipose tissue, abdominal adipose tissue, skeletal muscle and kidney” value in data set [9] was “Fluorescence derived from DBC30 was found from sites where lipid is accumulated”.

Consider `CCCCN(CCCC)c1ccc2cc(-c3nc4ccccc4n3-c3ccccc3)c(=O)oc2c1` [DBC30-Ph], for which the λabs max in data set [2] (in Bu2O (dibutyl ether)) turned out to be 399 nm; in [2] (in MeCN (acetonitrile)), 412 nm. Further, the λflu max in [2] (in Bu2O (dibutyl ether)) worked out at 467 nm; in data set [2] (in MeCN (acetonitrile)), 484 nm. The “φl (fluorescence quantum yield)” value in data set [2] (in Bu2O (dibutyl ether)) and in data set [2] (in MeCN (acetonitrile)) was 0.92 each time. Further, the “τf (fluorescence lifetime)” value came to 2.29 ns in data set [3] (in Bu2O (dibutyl ether)) and 2.51 ns in data set [3] (in MeCN (acetonitrile)). Besides, in data set [4], the “fluorescence intensity in cells” value is “higher fluorescence intensities than the HeLa cells to which Lipi-Blue was added”. The “lipid droplet selectivity (co-staining with BODIPY 493/503)” value in data set [6] is reported as “found to have lipid droplet selectivity”. The precipitation result in data set [7] (setting [10]) is reported as “could be suppressed”; in data set [7] (setting [11]) it was “precipitation of DBC30, DBC30-Bu, or DBC30-Ph occurs”.
